Measurements as given in patent US4889848A, “Tricyclic pyridine derivatives” (Hoffmann-La Roche Inc., priority 1988, dated 1989).
Like-named read-outs stand apart in the source and are kept apart here.

How the values were obtained:
[1] = test system: spasmodic seizures caused by pentetrazole; test: antipentetrazole test (protection from pentetrazole-induced seizures); type: in vivo, female rats; details: Rattus norvegicus, po, read-out: ED50 (dosage which protects 50% of the experimental animals from the spasmodic seizures caused by pentetrazole)
Method: As mentioned earlier, the compounds of formula I have valuable pharmacological properties.
(§1) In this animal test, the compound under investigation is adminstered orally or intravenously to female rats and 30 minutes later there are administered intraperitioneally 120 mg/kg of pentetrazole, which causes emprosthotonus and tonic stretchings of the fore and/or hind limbs in unprotected animals 1-4 minutes after the injection. Ten (10) experimental animals are used per dosage of test substance. After counting the protected experimental animals, the ED50 is determined according to the […]. The ED50 is that dosage which protects 50% of the experimental animals from the spasmodic seizures caused by pentetrazole. The results which have been obtained with representative members of the class of compound defined by formula I in the experiment described previously are compiled in the following Table. Moreover, the Table contains data concerning the acute toxicity (LD50) of some of the compounds of formula I in mg/kg in the case of single oral administration to mice.

[2] = acute toxicity, single oral administration to mice; details: mouse, in vivo, p.o.
Method: as §1

[3] = female rats, compound given 30 minutes before 120 mg/kg pentetrazole intraperitoneally, 10 animals per dosage

SMILES	ED50 [1] [mg/kg]	LD50 [2] [mg/kg]	ED50 [1, 3] [mg/kg]
COC1CCN(C(=O)c2cc(-c3ccccc3)c(=O)n3ccc4ccc(Cl)cc4c23)CC1 [L, 1-[(10-Chloro-3-phenyl-4-oxo-4H-benzo[a]quinolizin-1-yl)carbonyl]-4-methoxypiperidine]	0.22	> 5000	
COC[C@H]1CCCN1C(=O)c1cc(-c2ccccc2)c(=O)n2ccc3ccsc3c12 [O, (R)-2-(methoxymethyl)-1-[(7-oxo-8-phenyl-7H-thieno[2,3-a]quinolizin-10-yl)carbonyl]pyrrolidine]	0.49	5000	
COCCNC(=O)c1cc(-c2ccccc2)c(=O)n2c1-c1cc(Cl)ccc1CC2 [Compound A, 10-Chloro-6,7-dihydro-N-(2-methoxyethyl)-4-oxo-3-phenyl-4H-benzo[a]quinolizine-1-carboxamide]	2.6	> 5000	
CCOC1CCN(C(=O)c2cc(-c3ccccc3)c(=O)n3c2-c2cc(Cl)ccc2CC3)C1 (centres unmarked) [Q, 1-[(10-Chloro-6,7-dihydro-4-oxo-3-phenyl-4H-benzo[a]quinolizin-1-yl)carbonyl]-3-ethoxypyrrolidine]	3.1	> 5000	
O=C(c1cc(-c2ccccc2)c(=O)n2ccc3ccc(Cl)cc3c12)N1CCC[C@H]1CO [H, (S)-1-[(10-chloro-4-oxo-3-phenyl-4H-benzo[a]quinolizin-1-yl)carbonyl]-2-pyrrolidinemethanol]	1.3	> 3000	
COC[C@H]1CCCN1C(=O)c1cc(-c2ccccc2)c(=O)n2ccc3ccc(Cl)cc3c12 [Y, (R)-1-[(10-Chloro-4-oxo-3-phenyl-4H-benzo[a]quinolizin-1-yl)carbonyl]-2-(methoxymethyl)pyrrolidine]	0.41	5000	
CO[C@H]1CCN(C(=O)c2cc(-c3ccccc3)c(=O)n3ccc4ccsc4c23)C1 [S, (S)-3-methoxy-1-[(7-oxo-8-phenyl-7H-thieno[2,3-a]-quinolizin-10-yl)carbonyl]pyrrolidine]	0.87	5000	
COC[C@@H]1CCCN1C(=O)c1cc(-c2ccccc2)c(=O)n2ccc3ccc(Cl)cc3c12 [X, (S)-1-[(10-Chloro-4-oxo-3-phenyl-4H-benzo[a]quinolizin-1-yl)carbonyl]-2-(methoxymethyl)pyrrolidine]	1.1	5000	
O=C(c1cc(-c2ccccc2)c(=O)n2ccc3ccsc3c12)N1CCC[C@H]1CO [E, (S)-1-[(7-oxo-8-phenyl-7H-thieno[2,3-a]quinolizin-10-yl)carbonyl]-2-pyrrolidinemethanol]	3.5	625	
CO[C@@H]1CCN(C(=O)c2cc(-c3ccccc3)c(=O)n3ccc4ccsc4c23)C1 [R, (R)-3-methoxy-1-[(7-oxo-8-phenyl-7H-thieno[2,3-a]-quinolizin-10-yl)carbonyl]pyrrolidine]	0.17	1250	
C[C@@H]1CN(C(=O)c2cc(-c3ccccc3)c(=O)n3c2-c2sccc2CC3)C[C@H](C)O1 [I, cis-4-[(4,5-dihydro-7-oxo-8-phenyl-7H-thieno[2,3-a]-quinolizin-10-yl)carbonyl]-2,6-dimethylmorpholine]		> 5000	5.9
COC1CCN(C(=O)c2cc(-c3ccccc3)c(=O)n3ccc4ccc(Cl)cc4c23)C1 (centres unmarked) [G, 1-[(10-chloro-4-oxo-3-phenyl-4H-benzo[a]quinolizin-1-yl)carbonyl]-3-methoxypyrrolidine]	0.12	2500	
O=C(c1cc(-c2ccccc2)c(=O)n2ccc3ccc(Cl)cc3c12)N1CCC[C@@H]1CO [W, (R)-1-[(10-Chloro-4-oxo-3-phenyl-4H-benzo[a]quinolizin-1-yl)carbonyl]-2-pyrrolidinemethanol]	0.51	> 3000	
CCN(CCOC)C(=O)c1cc(-c2ccccc2)c(=O)n2ccc3ccsc3c12 [M, N-ethyl-N-(2-methoxyethyl)-7-oxo-8-phenyl-7H-thieno[2,3-a]quinolizine-10-carboxamide]	5	5000	
COC1CN(C(=O)c2cc(-c3ccccc3)c(=O)n3ccc4ccsc4c23)C1 [V, 3-Methoxy-1-[(7-oxo-8-phenyl-7H-thieno[2,3-a]quinolizin-10-yl)carbonyl]azetidine]	0.13	> 5000	
COC[C@@H]1CCCN1C(=O)c1cc(-c2ccccc2)c(=O)n2ccc3ccsc3c12 [F, (S)-2-methoxymethyl-1-[(7-oxo-8-phenyl-7H-thieno[2,3-a]quinolizin-10-yl)carbonyl]pyrrolidine]	2.8	5000	
COC[C@@H]1CCCN1C(=O)c1cc(-c2ccccc2)c(=O)n2c1-c1cc(Cl)ccc1CC2 [T, (S)-1-[(10-Chloro-6,7-dihydro-4-oxo-3-phenyl-4H-benzo[a]quinolizin-1-yl)carbonyl]-2-(methoxymethyl)pyrrolidine]	3.8	> 5000	
CC1CN(C(=O)c2cc(-c3ccccc3)c(=O)n3c2-c2cc(Cl)ccc2CC3)CC(C)O1 (centres unmarked) [D, 4-[(6,7-Dihydro-4-oxo-3-phenyl-10-chloro-4H-benzo[a]quinolizin-1-yl)carbonyl]-2,6-dimethylmorpholine]	1.2	> 5000	
O=C(OCc1cc(-c2ccccc2)c(=O)n2c1-c1sccc1CC2)N1CCOCC1 [C, (4,5-Dihydro-7-oxo-8-phenyl-7H-thieno[2,3-a]quinolizin-10-yl)methyl 4-morpholinecarboxylate]	15.9		
COC1CCN(C(=O)c2cc(-c3ccccc3)c(=O)n3c2-c2sccc2CC3)C1 (centres unmarked) [U, 1-[(4,5-Dihydro-7-oxo-8-phenyl-7H-thieno[2,3-a]quinolizin-10-yl)carbonyl]-3-methoxypyrrolidine]	2.7	> 5000	
COC1CCN(C(=O)c2cc(-c3ccccc3)c(=O)n3c2-c2cc(Cl)ccc2CC3)CC1 [K]	0.56	> 5000	
O=C(c1cc(-c2ccccc2)c(=O)n2c1-c1cc(Cl)ccc1CC2)N1CCC(O)CC1 [B, 1-[(10-Chloro-6,7-dihydro-4-oxo-3-phenyl-4H-benzo[a]quinolizin-1-yl)carbonyl]-4-piperidinol]		> 5000	5.4
COC1CCN(C(=O)c2cc(-c3ccccc3)c(=O)n3c2-c2cc(Cl)ccc2CC3)C1 (centres unmarked) [P, 1-[(10-Chloro-6,7-dihydro-4-oxo-3-phenyl-4H-benzo[a]quinolizin-1-yl)carbonyl]-3-methoxypyrrolidine]	0.31	> 5000	
COCCN(C)C(=O)c1cc(-c2ccccc2)c(=O)n2ccc3ccsc3c12 [N, N-(2-Methoxyethyl)-N-methyl-7-oxo-8-phenyl-7H-thieno[2,3-a]quinolizine-10-carboxamide]	0.97	625	
